According to patent US20240116985A1, “STAPLED PEPTIDES AND METHODS THEREOF” (priority 2020, published 2024):
Where two headings read alike, the source gives them in different places.

Key:
[1] = target: T1, full-length beta-Catenin (Uniprot ID P35222) (Homo sapiens, UniProt P35222); experiment: Fluorescence polarization IC50 (beta-catenin / 5FAM-TCF4 10-53 competition); type: binding
T1 construct: 10 nM full-length beta-Catenin (Uniprot ID P35222)
T1 sequence (P35222 1-781): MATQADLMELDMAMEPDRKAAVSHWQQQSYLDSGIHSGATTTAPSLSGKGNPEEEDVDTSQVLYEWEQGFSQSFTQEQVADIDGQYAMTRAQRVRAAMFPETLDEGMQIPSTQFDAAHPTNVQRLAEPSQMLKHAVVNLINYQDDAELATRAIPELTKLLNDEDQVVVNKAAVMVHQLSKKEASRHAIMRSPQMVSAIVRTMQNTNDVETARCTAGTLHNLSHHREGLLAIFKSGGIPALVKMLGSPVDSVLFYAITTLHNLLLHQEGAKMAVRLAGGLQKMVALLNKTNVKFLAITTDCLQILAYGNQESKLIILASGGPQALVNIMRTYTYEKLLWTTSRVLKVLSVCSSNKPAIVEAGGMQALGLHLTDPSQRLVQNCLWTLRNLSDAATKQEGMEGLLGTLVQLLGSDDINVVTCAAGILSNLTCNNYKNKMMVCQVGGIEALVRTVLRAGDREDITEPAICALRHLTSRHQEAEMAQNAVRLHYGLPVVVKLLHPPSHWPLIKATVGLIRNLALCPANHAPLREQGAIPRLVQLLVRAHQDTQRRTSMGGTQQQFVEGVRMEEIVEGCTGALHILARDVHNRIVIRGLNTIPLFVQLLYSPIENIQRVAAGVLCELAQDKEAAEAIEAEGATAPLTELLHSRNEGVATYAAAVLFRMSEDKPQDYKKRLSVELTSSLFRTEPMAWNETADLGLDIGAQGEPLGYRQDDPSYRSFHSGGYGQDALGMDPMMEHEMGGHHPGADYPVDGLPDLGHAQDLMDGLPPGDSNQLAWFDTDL

CHI Log D procedure = type: physicochemical; conditions: for CHI Log D: pH 7.4; for chromatographic logD: pH 7.4, CHI Log D
[2] = fluorescence polarization, read-out: beta-Catenin FP IC50

| IC50 [1, 2] | IC50 ([1]; read-out: FP EC50) | CHI Log D (CHI Log D procedure) | chromatographic logD (CHI Log D procedure) | SMILES |
| --- | --- | --- | --- | --- |
| 675 nM | 675 nM | 2.199 | – | CC[C@H](C)[C@@H]1NC(=O)C[C@H](C(=O)O)NC(=O)[C@]2(CC=CCCCC3(CCCC=CCCCCCC[C@@](C)(C(=O)N[C@@H](Cc4ccccc4)C(=O)N[C@@H](Cc4csc5ccccc45)C(=O)N[C@@H](CCC(N)=O)C(N)=O)NC(=O)[C@H](CCC(N)=O)NC(=O)[C@H](Cc4ccccc4)NC(=O)[C@H](C)NC(=O)[C@H](C)NC(=O)[C@H](CCC(=O)O)NC(=O)[C@H](CC(=O)O)NC3=O)NC1=O)CCCN2C(C)=O (stereo partly drawn) [I-668, Ac-PL3-isoDAsp-Ile-B5-Asp-Glu-Ala-Ala-Phe-Gln-S8-Phe-BztA-Gln-NH2] |
| 451 nM | 451 nM | 2.25 | – | CC[C@H](C)[C@@H]1NC(=O)C[C@H](C(=O)O)NC(=O)[C@]2(CC=CCCCC3(CCCC=CCCCCCC[C@@](C)(C(=O)N[C@@H](Cc4ccccc4)C(=O)N[C@@H](Cc4csc5ccccc45)C(=O)N[C@@H](CCC(N)=O)C(N)=O)NC(=O)[C@H](CCC(N)=O)NC(=O)[C@H](Cc4ccccc4)NC(=O)[C@H](C)NC(=O)[C@H](C)NC(=O)[C@H](CCC(=O)O)NC(=O)[C@H](CC(=O)O)NC3=O)NC1=O)CCCN2C(C)=O (stereo partly drawn) [I-669, Ac-PL3-isoDAsp-Ile-B5-Asp-Glu-Ala-Ala-Phe-Gln-S8-Phe-BztA-Gln-NH2] |
| 3140 nM | 3140 nM | 2.25 | – | CC[C@H](C)[C@@H]1NC(=O)C[C@H](CC(=O)O)NC(=O)[C@]2(CC=CCCCC3(CCCC=CCCCCCC[C@@](C)(C(=O)N[C@@H](Cc4ccccc4)C(=O)N[C@@H](Cc4csc5ccccc45)C(=O)N[C@@H](CCC(N)=O)C(N)=O)NC(=O)[C@H](CCC(N)=O)NC(=O)[C@H](Cc4ccccc4)NC(=O)[C@H](C)NC(=O)[C@H](C)NC(=O)[C@H](CCC(=O)O)NC(=O)[C@H](CC(=O)O)NC3=O)NC1=O)CCCN2C(C)=O (stereo partly drawn) [I-671, Ac-PL3-RbGlu-Ile-B5-Asp-Glu-Ala-Ala-Phe-Gln-S8-Phe-BztA-Gln-NH2] |
| 5000 nM | – | – | 1.9 | CC[C@H](C)[C@@H]1NC(=O)C[C@@H](CC(=O)O)NC(=O)[C@]2(CC=CCCCC3(CCCC=CCCCCCC[C@@](C)(C(=O)N[C@@H](Cc4ccccc4)C(=O)N[C@@H](Cc4csc5ccccc45)C(=O)N[C@@H](CCC(N)=O)C(N)=O)NC(=O)[C@H](CCC(N)=O)NC(=O)[C@H](Cc4ccccc4)NC(=O)[C@H](C)NC(=O)[C@H](C)NC(=O)[C@H](CCC(=O)O)NC(=O)[C@H](CC(=O)O)NC3=O)NC1=O)CCCN2C(C)=O (stereo partly drawn) [I-672, Ac-PL3-SbGlu-Ile-B5-Asp-Glu-Ala-Ala-Phe-Gln-S8-Phe-BztA-Gln-NH2] |
| 5000 nM | – | – | 1.87 | CC[C@H](C)[C@@H]1NC(=O)[C@H](CC(=O)O)NC(=O)[C@]2(CC=CCCCC3(CCCC=CCCCCCC[C@@](C)(C(=O)N[C@@H](Cc4ccccc4)C(=O)N[C@@H](Cc4csc5ccccc45)C(=O)N[C@@H](CCC(N)=O)C(N)=O)NC(=O)[C@H](CCC(N)=O)NC(=O)[C@H](Cc4ccccc4)NC(=O)[C@H](C)NC(=O)[C@H](C)NC(=O)[C@H](CCC(=O)O)NC(=O)C[C@@H](C(=O)O)NC3=O)NC1=O)CCCN2C(C)=O (stereo partly drawn) [I-673, Ac-PL3-Asp-Ile-B5-isoAsp-Glu-Ala-Ala-Phe-Gln-S8-Phe-BztA-Gln-NH2] |
| 5000 nM | – | – | 1.95 | CC[C@H](C)[C@@H]1NC(=O)[C@H](CC(=O)O)NC(=O)[C@]2(CC=CCCCC3(CCCC=CCCCCCC[C@@](C)(C(=O)N[C@@H](Cc4ccccc4)C(=O)N[C@@H](Cc4csc5ccccc45)C(=O)N[C@@H](CCC(N)=O)C(N)=O)NC(=O)[C@H](CCC(N)=O)NC(=O)[C@H](Cc4ccccc4)NC(=O)[C@H](C)NC(=O)[C@H](C)NC(=O)[C@H](CCC(=O)O)NC(=O)C[C@H](C(=O)O)NC3=O)NC1=O)CCCN2C(C)=O (stereo partly drawn) [I-674, Ac-PL3-Asp-Ile-B5-isoDAsp-Glu-Ala-Ala-Phe-Gln-S8-Phe-BztA-Gln-NH2] |
| 4520 nM | – | – | 2.13 | CC[C@H](C)[C@@H]1NC(=O)[C@H](CC(=O)O)NC(=O)[C@]2(CC=CCCCC3(CCCC=CCCCCCC[C@@](C)(C(=O)N[C@@H](Cc4ccccc4)C(=O)N[C@@H](Cc4csc5ccccc45)C(=O)N[C@@H](CCC(N)=O)C(N)=O)NC(=O)[C@H](CCC(N)=O)NC(=O)[C@H](Cc4ccccc4)NC(=O)[C@H](C)NC(=O)[C@H](C)NC(=O)[C@H](CCC(=O)O)NC(=O)C[C@H](CC(=O)O)NC3=O)NC1=O)CCCN2C(C)=O (stereo partly drawn) [I-675, Ac-PL3-Asp-Ile-B5-RbGlu-Glu-Ala-Ala-Phe-Gln-S8-Phe-BztA-Gln-NH2] |
| 5000 nM | – | – | 2.29 | CC[C@H](C)[C@@H]1NC(=O)[C@H](CC(=O)O)NC(=O)[C@]2(CC=CCCCC3(CCCC=CCCCCCC[C@@](C)(C(=O)N[C@@H](Cc4ccccc4)C(=O)N[C@@H](Cc4csc5ccccc45)C(=O)N[C@@H](CCC(N)=O)C(N)=O)NC(=O)[C@H](CCC(N)=O)NC(=O)[C@H](Cc4ccccc4)NC(=O)[C@H](C)NC(=O)[C@H](C)NC(=O)[C@H](CCC(=O)O)NC(=O)C[C@@H](CC(=O)O)NC3=O)NC1=O)CCCN2C(C)=O (stereo partly drawn) [I-676, Ac-PL3-Asp-Ile-B5-SbGlu-Glu-Ala-Ala-Phe-Gln-S8-Phe-BztA-Gln-NH2] |

The next lines start with the compound.

| SMILES | IC50 [1, 2] | IC50 ([1]; read-out: FP EC50) | CHI Log D (CHI Log D procedure) | chromatographic logD (CHI Log D procedure) |
| --- | --- | --- | --- | --- |
| CCCC[C@@H]1NC(=O)[C@H](C)NC(=O)[C@H](CCC(=O)O)NC(=O)[C@H](CC(=O)O)NC(=O)C2(CCCC=CCCCCCC[C@@](C)(C(=O)N[C@@H](Cc3ccccc3)C(=O)N[C@@H](Cc3csc4ccccc34)C(=O)N[C@@H](CCC(N)=O)C(N)=O)NC(=O)[C@H](CCC(N)=O)NC(=O)[C@H](Cc3ccccc3)NC1=O)CCCC=CC[C@]1(CCCN1C(C)=O)C(=O)N[C@@H](CC(=O)O)C(=O)N[C@@H]([C@@H](C)CC)C(=O)N2 (stereo partly drawn) [I-666, Ac-PL3-Asp-Ile-B5-Asp-Glu-Ala-nLeu-Phe-Gln-S8-Phe-BztA-Gln-NH2] | 626 nM | 626 nM | 2.862 | – |
| CCCC[C@@H]1NC(=O)[C@H](C)NC(=O)[C@H](CCC(=O)O)NC(=O)[C@H](CC(=O)O)NC(=O)C2(CCCC=CCCCCCC[C@@](C)(C(=O)N[C@@H](Cc3ccccc3)C(=O)N[C@@H](Cc3csc4ccccc34)C(=O)N[C@@H](CCC(N)=O)C(N)=O)NC(=O)[C@H](CCC(N)=O)NC(=O)[C@H](Cc3ccccc3)NC1=O)CCCC=CC[C@]1(CCCN1C(C)=O)C(=O)N[C@@H](CC(=O)O)C(=O)N[C@@H]([C@@H](C)CC)C(=O)N2 (stereo partly drawn) [I-667, Ac-PL3-Asp-Ile-B5-Asp-Glu-Ala-nLeu-Phe-Gln-S8-Phe-BztA-Gln-NH2] | 585 nM | 585 nM | 2.88 | – |
| CC(=O)N1CCC[C@]12CC=CCCCC1(CCCC=CCCCOC(=O)N3CC[C@@](C(=O)N[C@@H](Cc4ccsc4)C(=O)N[C@@H](Cc4csc5ccccc45)C(=O)N[C@@H](Cc4c[nH]cn4)C(N)=O)(C3)NC(=O)[C@H](CC(N)=O)NC(=O)[C@H](Cc3ccccc3)NC(=O)[C@H](C)NC(=O)[C@H](C)NC(=O)[C@H](CC(=O)O)NC(=O)[C@H](CC(=O)O)NC1=O)NC(=O)[C@H](CC(C)(C)C)NC(=O)[C@H](CC(=O)O)NC2=O (stereo partly drawn) [I-695, Ac-PL3-Asp-Npg-B5-Asp-Asp-Ala-Ala-Phe-Asn-PyrS2-3Thi-BztA-His-NH2] | 5 nM | – | 2.117 | – |
| CC[C@H](C)[C@@H]1NC(=O)[C@H](CC(=O)O)NC(=O)[C@]2(CC=CCCCC3(CCCC=CCCCCCC[C@@](C)(C(=O)N[C@@H](Cc4ccsc4)C(=O)N[C@@H](Cc4csc5ccccc45)C(=O)N[C@@H](CCC(N)=O)C(N)=O)NC(=O)[C@H](CC(N)=O)NC(=O)[C@H](Cc4ccccc4)NC(=O)[C@H](C)NC(=O)[C@H](C)NC(=O)[C@H](CN(CC(=O)O)CC(F)(F)F)NC(=O)[C@H](CC(=O)O)NC3=O)NC1=O)CCCN2C(C)=O (stereo partly drawn) [I-700, Ac-PL3-Asp-Ile-B5-Asp-TfeGA-Ala-Ala-Phe-Asn-S8-3Thi-BztA-Gln-NH2] | 49 nM | 49 nM | 2.607 | – |
| CC(=O)N1CCC[C@]12CC=CCCCC1(CCCC=CCCCCCC[C@@](C)(C(=O)N[C@@H](Cc3ccccc3)C(=O)N[C@@H](Cc3csc4ccccc34)C(=O)N[C@@H](CCC(N)=O)C(=O)N[C@@H](C)C(N)=O)NC(=O)[C@H](CC(N)=O)NC(=O)[C@H](Cc3ccccc3)NC(=O)[C@H](C)NC(=O)[C@H](C)NC(=O)[C@H](CCC(=O)O)NC(=O)[C@H](CC(=O)O)NC1=O)NC(=O)[C@H](CC(C)C)NC(=O)[C@H](CC(=O)O)NC2=O (stereo partly drawn) [I-729, Ac-PL3-Asp-Leu-B5-Asp-Glu-Ala-Ala-Phe-Asn-S8-Phe-BztA-Gln-Ala-NH2] | 56 nM | 56 nM | 2.366 | – |
| CC[C@H](C)[C@H](NC(=O)[C@H](CCC(N)=O)NC(=O)[C@H](Cc1csc2ccccc12)NC(=O)[C@H](Cc1ccccc1)NC(=O)[C@]1(C)CCCCCCC=CCCCC2(CCCC=CC[C@]3(CCCN3C(C)=O)C(=O)N[C@@H](CC(=O)O)C(=O)N[C@@H](CC(C)C)C(=O)N2)C(=O)N[C@@H](CC(=O)O)C(=O)N[C@@H](CCC(=O)O)C(=O)N[C@@H](C)C(=O)N[C@@H](C)C(=O)N[C@@H](Cc2ccccc2)C(=O)N[C@@H](CC(N)=O)C(=O)N1)C(N)=O (stereo partly drawn) [I-732, Ac-PL3-Asp-Leu-B5-Asp-Glu-Ala-Ala-Phe-Asn-S8-Phe-BztA-Gln-Ile-NH2] | 4220 nM | 4220 nM | 2.121 | – |
